Data published in PMC6687188, “Novel lactate dehydrogenase inhibitors with in vivo efficacy against Cryptosporidium parvum” (PLoS Pathogens, 2019).

Target: recombinant CpLDH protein (Cryptosporidium parvum, UniProt Q9GT92, F198L/K295E/R251K)

COc1ccccc1/C=C1\Sc2scc(-c3cccc([N+](=O)[O-])c3)[n+]2C1=O.[Cl-] [NSC657446]
MEAN CpLDH INHIBITION (%): -8.01%

NC(=S)N/N=C/c1ccc(OC(=O)COc2ccccc2Cl)cn1 [NSC185056]
MEAN CpLDH INHIBITION (%): -5.23%

Nc1ccc(N)c2c1C(=O)c1ccccc1C2=O [NSC7833]
MEAN CpLDH INHIBITION (%): -11.00%

COC(=O)c1ccccc1NC(=O)C(=O)CC(=O)c1ccccc1NC1=CC(=O)C(=O)c2ccccc21 [NSC641240]
MEAN CpLDH INHIBITION (%): -190.19%

CCOC(=O)c1ccc(N=Cc2ccc(N(CCC#N)CCC#N)cc2)cc1 [NSC620279]
MEAN CpLDH INHIBITION (%): -17.13%

COc1cc(CC(=O)c2cc3c(cc2-c2ccccc2)OCO3)cc(OC)c1OC [NSC648419]
MEAN CpLDH INHIBITION (%): -12.60%

CO[C@@H](/C(C)=C/C=C/C(C)=C/c1coc(C)n1)[C@@H](C)[C@@H]1C[C@H](O)[C@@]2(C)O[C@@H]2/C=C/[C@@H](C)[C@H]2C[C@H](CC(=O)O2)C[C@@H]2O[C@H]2C(=O)O1 [NSC332598]
MEAN CpLDH INHIBITION (%): -143.77%

C/C(=N\Nc1nc2ccccc2s1)c1ccncn1 [NSC693632]
MEAN CpLDH INHIBITION (%): 0.06%

NC1N=C(c2ccc(Cl)cc2)C2=C(N1)c1ccccc1CC2 (stereo not drawn) [NSC682864]
MEAN CpLDH INHIBITION (%): -37.11%

COc1cc(C(O)CCBr)c(OC)cc1C (stereo not drawn) [NSC611750]
MEAN CpLDH INHIBITION (%): -11.25%

CC1CCCC(C(=O)/C(=C/c2cccc(Cl)c2)C(=O)C(=O)O)C1 (stereo not drawn) [NSC636084]
MEAN CpLDH INHIBITION (%): -20.56%

O=C(O)c1ccc(NC(c2ccccc2)c2ccc3cccnc3c2O)cc1 (stereo not drawn) [NSC1011]
MEAN CpLDH INHIBITION (%): -0.99%

CC(C)OP(=O)(OC(C)C)C(N(C)C)P(=O)(OC(C)C)OC(C)C.[Cl][Sn]([Cl])([Cl])[c]1ccccc1 [NSC645567]
MEAN CpLDH INHIBITION (%): -28.84%

O=C1NC(c2cccc3ccccc23)Nc2ccccc21 (stereo not drawn) [NSC145669]
MEAN CpLDH INHIBITION (%): 0.07%

CN/N=C(\C)C(CN1CCCCC1)C(C1=C(O)c2ccccc2OC1)c1ccccc1.Cl (stereo not drawn) [NSC647418]
MEAN CpLDH INHIBITION (%): -56.81%

CC(C)(O)CCC(O)C(C)(O)C1CCC2(O)C3=CC(=O)C4(O)CC(O)C(O)CC4(C)C3CCC12C.CC(C)(O)CCC(O)C(C)(O)C1CCC2(O)C3=CC(=O)C4CC(O)C(O)CC4(C)C3CCC12C (stereo not drawn) [NSC115493]
MEAN CpLDH INHIBITION (%): -100.16%

COc1cc(-c2cc(=O)c3c(OC)c(OC)c(OC)c(OC)c3o2)cc(OC)c1OC [NSC67580]
MEAN CpLDH INHIBITION (%): -41.90%

c1ccc(-c2cccc(-c3ccccn3)n2)nc1 [NSC3905]
MEAN CpLDH INHIBITION (%): -48.97%

Nc1ccn([C@@H]2C=C(CO)[C@@H](O)[C@H]2O)c(=O)n1 [NSC375575]
MEAN CpLDH INHIBITION (%): -28.69%

C[C@]12CC[C@@H]3c4ccccc4CC[C@H]3[C@@H]1CC[C@@H]2O [NSC22194]
MEAN CpLDH INHIBITION (%): -50.61%

O=c1c(Br)c(-c2ccccc2)[nH]c2ccccc12 [NSC12825]
MEAN CpLDH INHIBITION (%): -13.98%

O=C1c2ccccc2C(=O)c2c(NCCNCCO)ccc(O)c21 [NSC299187]
MEAN CpLDH INHIBITION (%): -23.00%

CO[C@H]1C[C@H](O[C@H]2CC[C@]3(C=O)[C@H]4CC[C@]5(C)[C@@H](C6=CC(=O)OC6)CC[C@]5(O)[C@@H]4CC[C@]3(O)C2)O[C@H](C)[C@H]1O[C@@H]1O[C@H](CO[C@@H]2O[C@H](CO)[C@@H](O)[C@H](O)[C@H]2O)[C@@H](O)[C@H](O)[C@H]1O [NSC7530]
MEAN CpLDH INHIBITION (%): -3.24%

C/C(NNC(=O)c1ccccc1O)=C1\C=Nc2ccccc2S1 [NSC635121]
MEAN CpLDH INHIBITION (%): 0.03%

Fc1cccc(F)c1C1SCc2nc3ccccc3n21 (stereo not drawn) [NSC625487]
MEAN CpLDH INHIBITION (%): -32.18%

OCCNCN(CNCCO)c1nc(N(CNCCO)CNCCO)nc(N(CNCCO)CNCCO)n1 [NSC653000]
MEAN CpLDH INHIBITION (%): -58.42%

CN(C)C(=S)/N=c1\ssc(=S)n1Cc1ccccn1 [NSC645617]
MEAN CpLDH INHIBITION (%): -28.16%

O=C1Nc2c(Cl)cc(Cl)cc2C1=O [NSC26045]
MEAN CpLDH INHIBITION (%): -41.99%

Cc1ccc([N+](=O)[O-])cc1NC(=O)c1cccc([N+](=O)[O-])c1O [NSC79451]
MEAN CpLDH INHIBITION (%): -40.98%

OCCNCCN1CCN(CCCN2c3ccccc3Sc3ccc(C(F)(F)F)cc32)CC1 [NSC169676]
MEAN CpLDH INHIBITION (%): -69.84%

Nc1nc(SCc2ccccc2Cl)c2ncn(C3OC(CO)C(O)C3O)c2n1 (stereo not drawn) [NSC40666]
MEAN CpLDH INHIBITION (%): -57.18%

C[n+]1ccc(Nc2ccc(NC(=O)c3ccc(Nc4cc[n+](C)c5ccc([N+](=O)[O-])cc45)cc3[N+](=O)[O-])cc2)cc1.Cl [NSC218439]
MEAN CpLDH INHIBITION (%): -11.45%

CC(C)(C)c1ccc(OC2CCO2)cc1 (stereo not drawn) [NSC635975]
MEAN CpLDH INHIBITION (%): -52.75%
